{"source": "paper PMC7613620", "about": "“Reaction hijacking of tyrosine tRNA synthetase as a whole-of-life-cycle antimalarial strategy” (Science (New York, N.Y.), 2022)", "key": {"[1]": {"test_system": "protein translation in P. falciparum (Cam3.II-rev) schizonts", "test": "Protein translation assay (O-propargyl-puromycin incorporation)", "type": "cell-based, Plasmodium falciparum", "settings": "Plasmodium falciparum, 3 h, read-out: IC50 (Translation), schizont stage Cam3.II-rev, 3 h exposure, OPP incorporation", "description": "723 then fixed for 10 minutes (4% formaldehyde/0.02% glutaraldehyde in PBS). The click reaction was\n724 performed for 1 h in the presence of CuSO4 (0.1 mM), THPTA (0.5 mM) and sodium ascorbate (5 mM) to\n725 bring about azide-alkyne cycloaddition to Alexa Fluor 488 azide (0.1 µM). Flow cytometry was performed\n726 using the FITC and Cy™5.5 channels to detect the Alexa Fluor 488 and PI, respectively.\n729 Cam 3.II_Rev (25) trophozoite-infected RBCs (25-30 h p.i.) were incubated with inhibitor for 3 h at 10%\n730 hematocrit and 5% parasitemia. The RBC pellet was washed 3 x in PBS + cOmplete. Cells were centrifuged\n731 at 380 x g for 5 min and the pelleted cells lysed by resuspension in PBS + 0.05% saponin for 5 min on ice."}, "[2]": {"settings": "SCID, mouse, in vivo, ip, 50 mg/kg", "description": "625 of 50 mg/kg of compound on day 3 post-infection and measuring the effect on blood parasitemia by\n626 microscopic analysis of Giemsa-stained blood smears (on days 3, 4, 5, 6 and 7 post-infection). Mice were\n630 Human biological samples were sourced ethically; and their research use was in accord with the terms of\n631 the informed consent. All animal studies were ethically reviewed and carried out in accredited facilities in\n632 accordance with the relevant country’s directives and the institution’s Policy on the Care, Welfare and\n633 Treatment of Animals.\n635 Plasma exposure in infected mouse model\n637 blood samples (20 μL) were obtained at time points up to 24 hours after the first administration. Protein was\n638 precipitated with acetonitrile and the remaining compound was assessed by LC-MS/MS in the selected reaction\n641 Rat pharmacokinetics (PK) analyses\n642 Sprague-Dawley rats (11 weeks old) were sourced from Hilltop Lab Animals, Inc (Scottdale, Pennsylvania,\n643 USA). ML901 was formulated in EtOH: DMAC: PEG400: H2O at 1:1:4:4 (v/v) and 10% captisol in 50 […]\n648 0.5% formic acid in methanol and the supernatants were analysed by positive ion electrospray LC-MS for\n649 the administered compound. Non-compartmental pharmacokinetic parameters were calculated from […]\n660 IGM Genomics Center on the Illumina HiSeq 2500 in RapidRun mode to generate 100bp paired-end reads."}}, "data": [{"smiles": "Nc1ncnc2c1c(OC(F)F)nn2[C@@H]1O[C@H](COS(N)(=O)=O)[C@@H](O)[C@H]1O", "note": "[ML901]", "values": [{"measurement": "IC50", "setting": "[1]", "value": 65, "unit": "nM"}, {"measurement": "exposure (area under the curve)", "setting": "[2]", "value": 580, "unit": "µM·h"}]}]}
